Experimental data: patent publication US12570642B2, “GLP-IR modulating compounds” (Gilead Sciences, Inc., priority 2021, dated 2026)

biological target: GLP-1R (Homo sapiens, UniProt P43220); assay: GLP-1R Activation - cAMP Assay; type: cell-based; conditions: cAMP increase in CHO cells stably expressing GLP-1R; each compound run on one of the two cAMP assays (Assay 1 or Assay 2, not specified)
Description: GLP-1R Activation—cAMP Assay 1
GLP-1R activation by compounds of the present disclosure were quantified by measuring cAMP increase in CHO cells stably expressing GLP-1R (MultiSpan product #C1267-1a). The cells were harvested and plated in growth medium (DMEM/F-12 (Corning product #10-090-CV) supplemented with 10% FBS (HyClone product #SH30071-03), penicillin/streptomycin (Corning product #30-002CI) and 10 μg/ml puromycin (Gibco product #A11138-03)) at 1,000 cells/well in a 384-well plate (Greiner product #781080). The cells were then incubated overnight at 37° C., 5% CO2. The next day, the medium was removed and the cells were washed with DPBS (Corning product #21-031-CM) before adding the assay medium (HBSS, Corning product #21-023-CV) with 20 mM Hepes (Gibco product #15630-080) and 0.1% BSA (Rockland Immunochemicals product #BSA-1000)). Following the medium change, the cells were incubated for 1 hour at 37° C., 5% CO2. The tested GLP-1 compound was added to the cells in a 10-point dose response followed by a 30 minutes incubation at 37° C., 5% CO2. cAMP concentration increase was then detected using Cisbio's cAMP Gs Dynamic Kit (product #62AM4PEC) according to the manufacturer's protocol. The response was plotted against the log of the agonist concentration and fitted to a sigmoidal equation to determine the EC50.

Chain of GLP-1R (P43220 24-463): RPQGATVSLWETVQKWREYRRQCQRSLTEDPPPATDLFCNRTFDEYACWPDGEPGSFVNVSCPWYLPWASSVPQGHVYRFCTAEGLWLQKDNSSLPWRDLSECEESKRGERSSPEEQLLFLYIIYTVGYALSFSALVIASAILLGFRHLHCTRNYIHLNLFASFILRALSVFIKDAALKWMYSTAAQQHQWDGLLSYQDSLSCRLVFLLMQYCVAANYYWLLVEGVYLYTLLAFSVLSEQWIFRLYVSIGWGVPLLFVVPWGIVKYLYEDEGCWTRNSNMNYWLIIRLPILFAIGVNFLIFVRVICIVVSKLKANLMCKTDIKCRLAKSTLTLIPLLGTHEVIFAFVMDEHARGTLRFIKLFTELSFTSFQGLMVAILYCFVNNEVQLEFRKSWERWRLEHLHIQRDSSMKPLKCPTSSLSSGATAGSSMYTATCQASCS

EC50 [nM] | SMILES
0.363 | C[C@@H]1COC[C@H]1n1c(Cc2cc(F)c(-c3cccc(OCc4ccc(C#N)cc4F)n3)cc2F)nc2ccc(C(=O)O)cc21 (racemic) [Example 266, 2-(4-(6-((4-cyano-2-fluorobenzyl)oxy)pyridin-2-yl)-2,5-difluorobenzyl)-1-((3S,4S)-4-methyltetrahydrofuran-3-yl)-1H-benzo[d]imidazole-6-carboxylic acid]
0.055 | N#Cc1ccc(COc2cccc(-c3cc(F)c(Cc4nc5ccc(C(=O)O)cc5n4[C@@H]4COC[C@@H]4C(F)F)cc3F)n2)c(F)c1 (racemic) [Example 267, 2-(4-(6-((4-cyano-2-fluorobenzyl)oxy)pyridin-2-yl)-2,5-difluorobenzyl)-1-((4R)-4-(difluoromethyl)tetrahydrofuran-3-yl)-1H-benzo[d]imidazole-6-carboxylic acid]
0.164 | N#Cc1ccc(COc2cccc(-c3cc(F)c(Cc4nc5ccc(C(=O)O)cc5n4[C@@H]4COC[C@H]4C(F)F)cc3F)n2)c(F)c1 (racemic) [Example 269, 2-(4-(6-((4-cyano-2-fluorobenzyl)oxy)pyridin-2-yl)-2,5-difluorobenzyl)-1-((3S,4S)-4-(difluoromethyl)tetrahydrofuran-3-yl)-1H-benzo[d]imidazole-6-carboxylic acid]
6090 | CC12CC(n3c(Cc4cc(F)c(-c5cccc(OCc6ccc(C#N)cc6F)n5)cc4F)nc4ccc(C(=O)O)cc43)(CO1)C2 (racemic) [Example 270, 2-(4-(6-((4-cyano-2-fluorobenzyl)oxy)pyridin-2-yl)-2,5-difluorobenzyl)-1-((1s,4s)-1-methyl-2-oxabicyclo[2.1.1]hexan-4-yl)-1H-benzo[d]imidazole-6-carboxylic acid]
2.11 | N#Cc1ccc(COc2cccc(-c3cc(F)c(Cc4nc5ccc(C(=O)O)cc5n4C[C@@]45CO[C@@H](CCO4)C5)cc3F)n2)c(F)c1 (racemic) [Example 272, 1-(((5S)-2,6-dioxabicyclo[3.2.1]octan-1-yl)methyl)-2-(4-(6-((4-cyano-2-fluorobenzyl)oxy)pyridin-2-yl)-2,5-difluorobenzyl)-1H-benzo[d]imidazole-6-carboxylic acid]
0.421 | O=C(O)c1ccc2nc(Cc3cc(F)c(-c4cccc(OCc5ccc(Cl)cc5F)n4)cc3F)n(C3COC4CC3C4)c2c1 (racemic) [Example 407, 1-((4R)-2-oxabicyclo[3.1.1]heptan-4-yl)-2-(4-(6-((4-chloro-2-fluorobenzyl)oxy)pyridin-2-yl)-2,5-difluorobenzyl)-1H-benzo[d]imidazole-6-carboxylic acid]
1.33 | N#Cc1ccc(COc2cccc(-c3cc(F)c(Cc4nc5ccc(C(=O)O)cc5n4[C@@H]4COC[C@@H]4OC4CC4)cc3F)n2)c(F)c1 (racemic) [Example 411, 2-(4-(6-((4-cyano-2-fluorobenzyl)oxy)pyridin-2-yl)-2,5-difluorobenzyl)-1-((3R,4R)-4-cyclopropoxytetrahydrofuran-3-yl)-1H-benzo[d]imidazole-6-carboxylic acid]
0.462 | N#Cc1ccc(COc2cccc(-c3cc(F)c(Cc4nc5ccc(C(=O)O)cc5n4[C@@H]4COC[C@@H]4OCC(F)F)cc3F)n2)c(F)c1 (racemic) [Example 412, 2-(4-(6-((4-cyano-2-fluorobenzyl)oxy)pyridin-2-yl)-2,5-difluorobenzyl)-1-((3R,4R)-4-(2,2-difluoroethoxy)tetrahydrofuran-3-yl)-1H-benzo[d]imidazole-6-carboxylic acid]
0.043 | C[C@@H]1COC[C@@H]1n1c(Cc2cc(F)c(-c3cccc(OCc4ccc(C#N)cc4F)n3)cc2F)nc2ccc(C(=O)O)cc21 (racemic) [Example 505, 2-(4-(6-((4-cyano-2-fluorobenzyl)oxy)pyridin-2-yl)-2,5-difluorobenzyl)-1-((3R,4S)-4-methyltetrahydrofuran-3-yl)-1H-benzo[d]imidazole-6-carboxylic acid]
0.58 | Cn1cc(-c2cc(F)c(COc3cccc(-c4cc(F)c(Cc5nc6ccc(C(=O)O)cc6n5[C@@H]5COCC5(C)C)cc4F)n3)cn2)cn1 (single isomer, unassigned) [Example 58]
0.085 | COC[C@H]1COC[C@H]1n1c(Cc2cc(F)c(-c3cccc(OCc4ccc(C#N)cc4F)n3)cc2F)nc2ccc(C(=O)O)cc21 (single isomer, unassigned) [Example 176A]
0.748 | COC[C@@H]1COC[C@@H]1n1c(Cc2cc(F)c(-c3cccc(OCc4ccc(C#N)cc4F)n3)cc2F)nc2ccc(C(=O)O)cc21 (single isomer, unassigned) [Example 176B]
3.11 | N#Cc1ccc(COc2cccc(-c3cc(F)c(Cc4nc5ccc(C(=O)O)cc5n4[C@@H]4COC[C@@H]4C(F)F)cc3F)n2)c(F)c1 (single isomer, unassigned) [Example 233]
0.448 | N#Cc1ccc(COc2cccc(-c3cc(F)c(Cc4nc5ccc(C(=O)O)cc5n4[C@H]4COC[C@H]4C(F)F)cc3F)n2)c(F)c1 (single isomer, unassigned) [Example 234]
0.1 | CO[C@H]1COCC1n1c(Cc2cc(F)c(-c3cccc(OCc4ccc(C#N)cc4F)n3)cc2F)nc2c(F)cc(C(=O)O)cc21 (single isomer, unassigned) [Example 238]
0.04 | CO[C@@H]1COCC1n1c(Cc2cc(F)c(-c3cccc(OCc4ccc(C#N)cc4F)n3)cc2F)nc2c(F)cc(C(=O)O)cc21 (single isomer, unassigned) [Example 239]
0.578 | N#Cc1ccc(COc2cccc(-c3cc(F)c(Cc4nc5ccc(C(=O)O)cc5n4[C@H]4COCC45CC5)cc3F)n2)c(F)c1 (single isomer, unassigned) [Example 259]

EC50 [nM] | SMILES
0.411 | N#Cc1ccc(COc2cccc(-c3cc(F)c(Cc4nc5ccc(C(=O)O)cc5n4[C@@H]4COCC45CC5)cc3F)n2)c(F)c1 (single isomer, unassigned) [Example 260]
4.08 | N#Cc1ccc(COc2cccc(-c3cc(F)c(Cc4nc5ccc(C(=O)O)cc5n4[C@@H]4COC[C@H]4C(F)F)cc3F)n2)c(F)c1 (single isomer, unassigned) [Example 261]
1.07 | N#Cc1ccc(COc2cccc(-c3cc(F)c(Cc4nc5ccc(C(=O)O)cc5n4[C@H]4COC[C@@H]4C(F)F)cc3F)n2)c(F)c1 (single isomer, unassigned) [Example 262]
0.168 | CO[C@@H]1COC[C@@H]1n1c(Cc2cc(F)c(-c3cccc(OCc4ccc(C#N)cc4F)n3)cc2F)nc2ccc(C(=O)O)cc21 (single isomer, unassigned) [Example 275]
0.108 | CO[C@H]1COC[C@H]1n1c(Cc2cc(F)c(-c3cccc(OCc4ccc(C#N)cc4F)n3)cc2F)nc2ccc(C(=O)O)cc21 (single isomer, unassigned) [Example 276]
0.122 | CC1(C)COC[C@H]1n1c(Cc2cc(F)c(-c3cccc(OCc4ncc(Cl)cc4F)n3)cc2F)nc2ccc(C(=O)O)cc21 (single isomer, unassigned) [Example 289A]
0.931 | CC1(C)COC[C@@H]1n1c(Cc2cc(F)c(-c3cccc(OCc4ncc(Cl)cc4F)n3)cc2F)nc2ccc(C(=O)O)cc21 (single isomer, unassigned) [Example 289B]
0.063 | COc1cc(Cl)ncc1COc1cccc(-c2cc(F)c(Cc3nc4ccc(C(=O)O)cc4n3[C@@H]3COCC3(C)C)cc2F)n1 (single isomer, unassigned) [Example 290A]
0.764 | COc1cc(Cl)ncc1COc1cccc(-c2cc(F)c(Cc3nc4ccc(C(=O)O)cc4n3[C@H]3COCC3(C)C)cc2F)n1 (single isomer, unassigned) [Example 290B]
0.064 | CO[C@@]1(C)COC[C@H]1n1c(Cc2cc(F)c(-c3cccc(OCc4ccc(C#N)cc4F)n3)cc2F)nc2ccc(C(=O)O)cc21 (single isomer, unassigned) [Example 311A]
0.159 | CO[C@]1(C)COC[C@@H]1n1c(Cc2cc(F)c(-c3cccc(OCc4ccc(C#N)cc4F)n3)cc2F)nc2ccc(C(=O)O)cc21 (single isomer, unassigned) [Example 311B, 2-[[4-[6-[(4-cyano-2-fluoro-phenyl)methoxy]-2-pyridyl]-2,5-difluoro-phenyl]methyl]-3-[4-methoxy-4-methyl-tetrahydrofuran-3-yl]benzimidazole-5-carboxylic Acid]
0.397 | CO[C@]1(C)COC[C@H]1n1c(Cc2cc(F)c(-c3cccc(OCc4ccc(C#N)cc4F)n3)cc2F)nc2ccc(C(=O)O)cc21 (single isomer, unassigned) [Example 312]
1.14 | CO[C@@]1(C)COC[C@@H]1n1c(Cc2cc(F)c(-c3cccc(OCc4ccc(C#N)cc4F)n3)cc2F)nc2ccc(C(=O)O)cc21 (single isomer, unassigned) [Example 313]
0.574 | CC1(C)COC[C@@H]1n1c(Cc2ccc(-c3cccc(OCc4ccc(C#N)cc4F)n3)cc2F)nc2ccc(C(=O)O)cc21 (single isomer, unassigned) [Example 379]
0.096 | CC1(C)COC[C@@H]1n1c(Cc2ccc(-c3cccc(OCc4ccc(C#N)cc4F)n3)cc2F)nc2ccc(C(=O)O)cc21 (single isomer, unassigned) [Example 380]
0.747 | CC1(C)COC[C@H]1n1c(Cc2cc(F)c(-c3cccc(OCc4ccc(C(F)F)cc4F)n3)cc2F)nc2ccc(C(=O)O)cc21 (single isomer, unassigned) [Example 383A]
